According to ChEMBL document CHEMBL1201862, “PubChem BioAssay data set” (2004):
Active and inactive are the calls of the source.

Columns and labels:
HEK293 = experiment: cells; format: functional, cell-based; conditions: Homo sapiens
[1] = target: T1, Nuclear receptor subfamily 0 group B member 1 (Homo sapiens, UniProt P51843); experiment: Luminescence-based cell-based high throughput dose response assay for inhibitors of the orphan nuclear receptor subfamily 0, group B, member 1 (DAX1; NR0B1). [Related pubchem assays (depositor defined):AID504766, AID504790]; format: functional
T1 sequence (P51843 whole entry): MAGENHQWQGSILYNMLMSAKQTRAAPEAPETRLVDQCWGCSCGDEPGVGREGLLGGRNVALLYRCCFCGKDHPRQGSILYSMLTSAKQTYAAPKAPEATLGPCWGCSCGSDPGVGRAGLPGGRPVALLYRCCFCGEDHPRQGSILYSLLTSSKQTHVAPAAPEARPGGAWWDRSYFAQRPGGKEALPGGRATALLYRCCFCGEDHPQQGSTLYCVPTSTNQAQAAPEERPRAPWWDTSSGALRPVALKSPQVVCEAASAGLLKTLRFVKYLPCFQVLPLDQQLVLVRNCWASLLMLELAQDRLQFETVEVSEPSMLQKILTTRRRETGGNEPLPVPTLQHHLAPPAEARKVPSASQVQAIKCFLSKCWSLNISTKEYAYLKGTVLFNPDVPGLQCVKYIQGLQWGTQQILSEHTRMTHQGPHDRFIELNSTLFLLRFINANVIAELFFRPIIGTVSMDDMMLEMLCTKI

[2] = target: Ras and Rab interactor 1/Tyrosine-protein kinase ABL1 (Homo sapiens, UniProt P00519+Q13671); format: functional;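 note: biochemical TR-FRET dose-response test measuring inhibition of binding between Rin1 and Abl proteins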
Chain of Ras and Rab interactor 1/Tyrosine-protein kinase ABL1 (P00519 whole entry): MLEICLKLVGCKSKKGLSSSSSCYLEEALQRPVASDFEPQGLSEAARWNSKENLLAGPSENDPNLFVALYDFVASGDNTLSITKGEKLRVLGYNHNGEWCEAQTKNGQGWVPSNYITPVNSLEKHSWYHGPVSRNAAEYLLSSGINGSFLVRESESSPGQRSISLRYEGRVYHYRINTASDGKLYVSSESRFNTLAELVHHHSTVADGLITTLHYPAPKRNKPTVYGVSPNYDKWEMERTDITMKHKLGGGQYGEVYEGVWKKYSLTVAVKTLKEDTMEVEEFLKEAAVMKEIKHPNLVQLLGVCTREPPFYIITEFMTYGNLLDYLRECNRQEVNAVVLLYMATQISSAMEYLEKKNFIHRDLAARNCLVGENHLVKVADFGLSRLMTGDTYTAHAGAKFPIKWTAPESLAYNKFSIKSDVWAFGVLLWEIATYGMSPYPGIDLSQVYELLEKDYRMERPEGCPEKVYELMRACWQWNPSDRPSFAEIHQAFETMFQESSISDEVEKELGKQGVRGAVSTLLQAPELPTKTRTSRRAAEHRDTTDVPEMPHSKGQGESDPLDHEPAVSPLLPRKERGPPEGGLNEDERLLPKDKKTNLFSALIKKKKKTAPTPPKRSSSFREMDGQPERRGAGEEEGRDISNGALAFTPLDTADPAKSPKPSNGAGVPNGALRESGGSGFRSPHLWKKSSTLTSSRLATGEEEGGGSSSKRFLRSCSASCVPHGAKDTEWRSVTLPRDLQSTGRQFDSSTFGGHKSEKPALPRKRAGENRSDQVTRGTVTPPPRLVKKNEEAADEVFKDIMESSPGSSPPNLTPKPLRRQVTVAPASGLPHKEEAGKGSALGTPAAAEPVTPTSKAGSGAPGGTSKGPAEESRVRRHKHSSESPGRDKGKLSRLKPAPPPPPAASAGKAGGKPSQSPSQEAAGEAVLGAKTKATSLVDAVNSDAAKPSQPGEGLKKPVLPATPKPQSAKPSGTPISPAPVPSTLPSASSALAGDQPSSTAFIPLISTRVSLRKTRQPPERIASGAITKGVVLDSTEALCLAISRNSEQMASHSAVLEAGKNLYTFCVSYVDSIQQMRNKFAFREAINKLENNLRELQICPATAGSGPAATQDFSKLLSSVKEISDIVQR
Chain of Ras and Rab interactor 1/Tyrosine-protein kinase ABL1 (Q13671 whole entry): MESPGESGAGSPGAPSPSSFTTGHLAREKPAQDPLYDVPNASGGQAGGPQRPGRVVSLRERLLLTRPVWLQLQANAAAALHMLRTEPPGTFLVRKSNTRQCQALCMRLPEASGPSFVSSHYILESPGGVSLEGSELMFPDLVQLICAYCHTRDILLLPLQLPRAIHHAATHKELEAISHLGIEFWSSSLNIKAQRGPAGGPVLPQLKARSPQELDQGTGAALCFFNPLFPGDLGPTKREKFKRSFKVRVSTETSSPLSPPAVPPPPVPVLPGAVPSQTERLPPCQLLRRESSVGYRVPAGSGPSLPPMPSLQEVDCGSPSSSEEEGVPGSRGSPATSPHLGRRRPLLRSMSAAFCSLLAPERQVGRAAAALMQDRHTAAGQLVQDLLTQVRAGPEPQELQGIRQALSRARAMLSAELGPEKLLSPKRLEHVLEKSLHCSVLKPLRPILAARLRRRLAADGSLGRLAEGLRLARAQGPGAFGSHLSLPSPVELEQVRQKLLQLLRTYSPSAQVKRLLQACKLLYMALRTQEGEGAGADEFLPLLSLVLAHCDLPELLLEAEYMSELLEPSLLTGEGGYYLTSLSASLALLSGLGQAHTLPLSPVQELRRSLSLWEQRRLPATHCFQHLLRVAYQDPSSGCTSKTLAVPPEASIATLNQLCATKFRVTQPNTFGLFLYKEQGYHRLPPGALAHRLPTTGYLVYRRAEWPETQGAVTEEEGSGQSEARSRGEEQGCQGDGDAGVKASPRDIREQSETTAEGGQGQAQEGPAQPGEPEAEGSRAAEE

HeLa = experiment: ATP-based viability loss in HeLa cells – cell-based, CellTiter-Glo luminescence, cherry-pick samples, cytotoxicity control for MITF activator project, dose response (AID 540259); format: functional; conditions: Homo sapiens
[3] = target: T2, Heat shock factor protein 1 (Mus musculus, UniProt P38532); experiment: enhancement of HSF1-driven luciferase signal – cell-based, NIH3T3, luminescence, dose retest, confirmation (AID 435004); format: functional;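 note: stress induced by proteasome inhibitor MG132 added 30 min after compound; luciferase reporter driven by HSF1 response element in NIH3T3 cells; actives raise luminescence as potentiators of the MG132 stress response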
T2 sequence (P38532 whole entry): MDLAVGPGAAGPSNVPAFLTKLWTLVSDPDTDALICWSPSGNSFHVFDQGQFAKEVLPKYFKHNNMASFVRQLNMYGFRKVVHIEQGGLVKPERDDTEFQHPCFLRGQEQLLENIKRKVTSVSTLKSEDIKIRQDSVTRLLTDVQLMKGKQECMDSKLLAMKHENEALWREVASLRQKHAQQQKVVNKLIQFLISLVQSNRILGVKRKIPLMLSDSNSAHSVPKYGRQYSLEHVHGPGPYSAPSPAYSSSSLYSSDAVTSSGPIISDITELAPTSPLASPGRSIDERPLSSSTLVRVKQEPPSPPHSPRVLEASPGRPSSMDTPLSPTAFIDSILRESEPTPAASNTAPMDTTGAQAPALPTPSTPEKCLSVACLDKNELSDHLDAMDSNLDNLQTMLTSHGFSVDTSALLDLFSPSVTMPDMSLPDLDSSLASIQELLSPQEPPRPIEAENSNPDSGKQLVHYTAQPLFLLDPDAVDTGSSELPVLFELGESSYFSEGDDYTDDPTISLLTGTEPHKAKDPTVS

Vero [4] = experiment: cells; format: functional; conditions: Chlorocebus sabaeus
Vero [5] = experiment: cells; format: functional, cell-based; conditions: Chlorocebus sabaeus
[6] = Luminescence Cell-Based Dose Retest to Confirm Inhibitors of Cancer Stem Cells. [Related pubchem assays (depositor defined):AID2717, AID2721]; format: functional; conditions: Homo sapiens
Protein Wnt-3a = Protein Wnt-3a (Mus musculus, UniProt P27467); experiment: antagonism of Wnt3a pathway luciferase reporter – Wnt-LIGHT cells, luminescence, selectivity assay for Gli-SUFU antagonist project, dose response (AID 651570); format: functional; conditions: read-out: IC50_Mean;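 note: Wnt-LIGHT reporter cells stimulated with conditioned medium from Wnt3a-producing cells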
Chain of Protein Wnt-3a (P27467 whole entry): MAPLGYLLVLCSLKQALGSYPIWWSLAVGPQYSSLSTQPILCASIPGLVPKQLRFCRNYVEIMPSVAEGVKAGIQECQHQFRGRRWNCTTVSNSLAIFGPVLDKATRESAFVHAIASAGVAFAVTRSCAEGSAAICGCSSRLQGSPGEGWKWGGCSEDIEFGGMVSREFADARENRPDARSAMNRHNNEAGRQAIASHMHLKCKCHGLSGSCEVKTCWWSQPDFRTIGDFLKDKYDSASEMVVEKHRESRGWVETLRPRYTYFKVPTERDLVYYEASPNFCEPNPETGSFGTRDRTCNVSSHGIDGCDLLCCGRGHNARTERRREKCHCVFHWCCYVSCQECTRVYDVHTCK

[7] = microbe, parasite or virus in culture; format: functional; conditions: Mycobacterium tuberculosis
Melanocortin receptor 4 = Melanocortin receptor 4 (Homo sapiens, UniProt P32245); format: functional, cell-based;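 note: Cell-based assay with luminescence read-out, confirmatory dose-response testing for agonist activity of biased ligands at MC4R; human U2OS cells with tagged receptor and beta-arrestin; potency of agonists that increase receptor coupling to beta-arrestin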
Chain of Melanocortin receptor 4 (P32245 whole entry): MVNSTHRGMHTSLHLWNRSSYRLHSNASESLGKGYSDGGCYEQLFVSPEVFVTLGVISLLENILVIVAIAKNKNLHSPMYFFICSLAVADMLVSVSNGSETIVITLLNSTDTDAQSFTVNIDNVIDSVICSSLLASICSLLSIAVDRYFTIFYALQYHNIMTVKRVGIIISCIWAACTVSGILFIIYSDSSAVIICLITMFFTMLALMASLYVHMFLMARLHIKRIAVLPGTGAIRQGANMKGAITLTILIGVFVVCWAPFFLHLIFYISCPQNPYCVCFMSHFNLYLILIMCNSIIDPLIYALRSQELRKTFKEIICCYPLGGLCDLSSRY

[8] = target: T3, Ubiquitin-conjugating enzyme E2 N (Homo sapiens, UniProt P61088); format: functional;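 note: Dose-response confirmation in a TR-FRET assay detecting UBC13-driven polyubiquitin chain formation, inhibition measured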
T3 sequence (P61088 whole entry): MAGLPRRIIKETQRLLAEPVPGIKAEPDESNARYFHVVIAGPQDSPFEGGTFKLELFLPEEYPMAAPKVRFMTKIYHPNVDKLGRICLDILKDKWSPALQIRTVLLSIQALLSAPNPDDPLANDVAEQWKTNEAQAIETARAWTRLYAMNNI

[9] = target: T4, Oxysterols receptor LXR-beta (Homo sapiens, UniProt P55055); format: functional, cell-based;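 note: agonist activity at LXR measured by a cell-based luminescence readout across a dose range, run as a counterscreen for daf-12 agonists; HEK293 cells with Gal4-LXR fusion and GAL4-driven luciferase reporter; potency for activation of Gal4-LXR reporter so compounds are agonists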
T4 sequence (P55055 whole entry): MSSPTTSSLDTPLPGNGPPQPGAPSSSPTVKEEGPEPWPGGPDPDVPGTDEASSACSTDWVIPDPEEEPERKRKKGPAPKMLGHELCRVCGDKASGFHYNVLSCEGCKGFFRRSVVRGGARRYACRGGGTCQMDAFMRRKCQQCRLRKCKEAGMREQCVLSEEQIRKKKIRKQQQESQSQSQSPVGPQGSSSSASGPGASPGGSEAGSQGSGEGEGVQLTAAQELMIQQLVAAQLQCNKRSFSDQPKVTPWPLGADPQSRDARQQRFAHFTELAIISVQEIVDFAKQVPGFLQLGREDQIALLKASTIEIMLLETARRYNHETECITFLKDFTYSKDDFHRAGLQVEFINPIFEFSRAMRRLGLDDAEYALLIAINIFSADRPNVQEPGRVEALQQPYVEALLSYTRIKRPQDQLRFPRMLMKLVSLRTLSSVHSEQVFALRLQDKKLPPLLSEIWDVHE

cells [10] = format: functional, cell-based
cells [11] = format: functional, cell-based; remark: listed apart in the source

CCn1cc(/C=C/C(=O)c2ccc(O)cc2)c(C)n1
IC50 (HEK293): > 67.5 µM (inactive) | IC50 [1]: > 67.5 µM (inactive)

COc1ccccc1OCc1ccc(C(=O)N2CCN(C(=O)c3ccco3)CC2)cc1
IC50 [2]: 36 µM (inactive)

CC1CCN(C(=O)c2cc(-c3ccccc3O)on2)CC1
AC50 (HeLa): 129 µM (active)

COc1ccc(/C=C/C(=O)c2ccc(NS(=O)(=O)c3ccc(C)cc3)cc2)cc1O
EC50 [3]: 32.2 µM (active) | CC50 (Vero [4]): 17.9 µM (active) | IC50 (Vero [5]): > 25 µM (active) | AC50 [6]: 2.69 µM (active)

COC(=O)c1ccc(COC(=O)C23CC4CC(CC(O)(C4)C2)C3)o1
IC50 [2]: 17.4 µM (inactive)

CCS(=O)(=O)N1CCN(c2nc(-c3ccccc3)cs2)CC1
AC50 (HeLa): 61.6 µM (active)

O=C(Nc1nc(-c2cccs2)cs1)c1cccc(S(=O)(=O)N2CCCCCC2)c1
IC50 (Protein Wnt-3a): 19.2 µM (active)

COc1ccc(C(=O)Nc2nncs2)cc1S(=O)(=O)N1CC(c2ccccc2)CC1=O (stereo not given)
IC50 (HEK293): > 67.5 µM (inactive) | IC50 [1]: > 67.5 µM (inactive)

CN(C)CCOc1ccc(-c2c(-c3ccsc3)sc3ccccc23)cc1
CC50 [7]: 11.3 µM (active) | AC50 [6]: 3.47 µM (active) | EC50 (Melanocortin receptor 4): > 89.2 µM (inactive) | IC50 [8]: > 20 µM (inactive)

CCN(CC)C(=O)OCc1c(-c2ccccc2)ncc2ccccc12
AC50 (HeLa): 110 µM (active)

CC(=O)Nc1cc(-c2ccc(F)cc2)cn2c(-c3ccc(F)c(Cl)c3)cnc12
EC50 (Melanocortin receptor 4): > 89.2 µM (inactive)

N#C/C(=N\Nc1ccc(Cl)cc1)C(=N)N1CCCCCC1
IC50 (HEK293): > 0.833 µM (active) | IC50 [1]: > 67.5 µM (inactive) | EC50 [9]: > 67.5 µM (inactive)

Oc1ccc(Cl)cc1/C=N/CCc1ccccc1
EC50 (cells [10]): > 29.9 µM (inactive) | IC50 (cells [11]): 9.79 µM (active)

CCCn1c2c(c(=N)c3c1CCC3)CCCC2
IC50 (Protein Wnt-3a): 37 µM (inactive)
